Measured values reported in patent US20210178012A1, “FOAM WOUND DRESSING COMPRISING AN ANTISEPTIC” (Coloplast A/S, priority 2018, published 2021).

Key:
[1] = Octenidine in foam, no surfactant: extraction from impregnated hydrophilic polyurethane foam discs; assay type: physicochemical; settings: plain foam, 24 h extraction
Protocol: Discs of hydrophilic polyurethane foam were impregnated by applying a known volume of octenidine-containing solution to the surface of the foam and letting it soak into the foam matrix in a liquid:foam ratio which allowed the foam to be saturated with liquid. Afterwards, the impregnated foam was dried at RT overnight. The dried foam disc was immersed in the extraction media for 24 h and the extracted octenidine concentration was determined by UV at 285 nm

[2] = Previous zone of inhibition studies (not shown); assay type: cell-based; settings: pure octenidine impregnated into foam without surfactants
[3] = 0.1 w % OCT in impregnation solution
[4] = 0.5 w % OCT in impregnation solution
[5] = 1.0 w % OCT in impregnation solution

CCCCCCCCN=c1ccn(CCCCCCCCCCn2ccc(=NCCCCCCCC)cc2)cc1 [Octenidine, octenidine]
Release % phosphate buffer (23 mM) [1, 3]: 7% | Release % water [1, 3]: 5% | Release % phosphate buffer (23 mM) [1, 4]: 13% | Release % water [1, 4]: 1.5% | Release % phosphate buffer (23 mM) [1, 5]: 20% | Release % water [1, 5]: 1.5% | zones in a zone of inhibition study [2]: small or no zones
